Measured values as given in ChEMBL document CHEMBL1128494, “Synthesis and sigma binding properties of 1'- and 3'-halo- and 1',3'-dihalo-N-normetazocine analogues” (J Med Chem, 1995).

Each compound was assayed against Sigma non-opioid intracellular receptor 1 (Rattus norvegicus) (UniProt Q9R0C9) (assay: Ratio of the binding affinity against Sigma receptor type 2 to that of Sigma receptor type 1).
Chain of Sigma non-opioid intracellular receptor 1 (Rattus norvegicus) (Q9R0C9 whole entry): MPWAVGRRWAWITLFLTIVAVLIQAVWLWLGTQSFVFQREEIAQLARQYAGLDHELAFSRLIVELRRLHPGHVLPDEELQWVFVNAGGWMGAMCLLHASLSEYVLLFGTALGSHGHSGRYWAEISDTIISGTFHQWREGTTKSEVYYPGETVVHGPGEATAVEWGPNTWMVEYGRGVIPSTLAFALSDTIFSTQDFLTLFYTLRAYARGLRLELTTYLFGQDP
`CC(C)=CCN1CCC2(C)c3cc(O)c(I)cc3CC1C2C` (stereo in doubt; (-)-5b) showed a Ratio of 2.7.
Work on `CC(C)=CCN1CCC2(C)c3cc(O)c(Br)cc3CC1C2C` (single isomer, unassigned; (+)) yielded a Ratio of 3.2.
Compound `CC(C)=CCN1CCC2(C)c3cc(O)c(Br)cc3CC1C2C` (single isomer, unassigned; (-)) has a Ratio of 1.9.
With `CC1C2Cc3ccc(O)c(Cl)c3C1(C)CCN2Cc1ccccc1` (single isomer, unassigned; (+)) the Ratio was 440.
For `CC(C)=CCN1CCC2(C)c3cc(O)c(I)cc3CC1C2C` (stereo in doubt; (+)-5b), the Ratio was 0.24.
`CC(C)=CCN1CCC2(C)c3c(cc(Br)c(O)c3Br)CC1C2C` (single isomer, unassigned; (+)) was tested, and the Ratio was 1.8.
`CC1C2Cc3cc(Br)c(O)cc3C1(C)CCN2Cc1ccccc1` (stereo unspecified) gave a Ratio of 18.
`CC1C2Cc3cc(Cl)c(O)c(Cl)c3C1(C)CCN2Cc1ccccc1` (stereo unspecified) was tested, and the Ratio was 30.
`CC1C2Cc3ccc(O)c(Br)c3C1(C)CCN2Cc1ccccc1` (single isomer, unassigned; (+)) gave a Ratio of 200.
`CC1C2Cc3ccc(O)cc3C1(C)CCN2Cc1ccccc1` (stereo unspecified) was tested, and the Ratio was 2600.
In the case of `CC1C2Cc3cc(Br)c(O)c(Br)c3C1(C)CCN2Cc1ccccc1` (single isomer, unassigned; (+)), the Ratio was 28.
